Assay results taken from patent publication US20230271923A1, “IMAGING AND TARGETING PROGRAMMED DEATH LIGAND-1 (PD-LI) EXPRESSION” (The Johns Hopkins University, priority 2020, published 2023).
Where a SMILES comes first, the peptide text is derived from it. Bridges are numbered along the chain shown (N, C = ends). [ ]: non-standard residue; d: D form. The star is where a group is joined. Trp(1-CH2COOH) = N[C@@H](Cc1cn(CC(=O)O)c2ccccc12)C(=O)O; X1 = O=C(O)CN1CCN(CC(=O)O)CCN(Cc2ccc(NC(=S)*)cc2)CC1; Hyp = O=C(O)[C@@H]1C[C@@H](O)CN1; NMeNle = CCCC[C@H](NC)C(=O)O; NMeA = CN[C@@H](C)C(=O)O

Legend:
[1] = circulating half-life; cited from earlier work
[2] = test system: hPD-L1/CHO xenografts; conditions: in vivo
[3] = test system: A375 melanoma xenografts; assay: aPD-1 mAb dosing study, [^18F]DK222 uptake in A375 tumors; assay type: in vivo; conditions: huPBMC mice, single dose aPD-1 mAb 12 mg/kg, one week
Protocol: A humanized mouse model was used to quantify the differences in tumor PD-L1 levels as a measure of adaptive immune response to treatment with different aPD-1 mAbs. NSG mice humanized with PBMCs (huPBMC) bearing A375 melanoma xenografts were treated with a single dose of aPD-1 mAbs (12 mg/kg). Following one week of treatment, tumor PD-L1 levels were measured by [^18F]DK222-PET and by ex vivo counting 24 hours later (FIG. 4A). As controls, tumor-bearing huPBMC mice treated with saline and NSG mice treated with Pembrolizumab and Nivolumab were included.
1.3.14 aPD-1 mAb dosing studies. huPBMC mice acquired from JAX labs were implanted subcutaneously with 2×10^6 A375 cells in the rostral end. Seven days after cell inoculation (average tumor volume=80±15 mm^3), mice were randomized and treated with a single 12 mg/kg dose of Nivolumab or Pembrolizumab injected intravenously (n=9/group). huPBMC mice treated with saline (n=4-5/group). or NSG mice treated with 12 mg/kg dose of Nivolumab or Pembrolizumab were used as controls. Seven days following treatment, [^18F]DK222 PET scans were acquired on at least 3-5 mice per group. […]
1.3.15 Flow cytometry analysis. […] Cells were counted and 1×10^6 cells were resuspended in 100 μL Live/Dead aqua solution (ThermoFisher #L34965, 2 μL reconstituted with 2 mL PBS) in a 96 well plate. […]

[4] = test system: LOX-IMVI tumors; assay: aPD-L1 mAb dosing studies, accessible PD-L1 levels by [^18F]DK222 uptake; assay type: in vivo, NSG mice; conditions: for reduction in [^18F]DK222 uptake in tumors vs vehicle: 24 hour before tracer, ex vivo
Protocol: To confirm the in vitro observations in vivo, NSG mice bearing LOX-IMVI tumors were treated with a single dose of 0.3 or 20 mg/kg of Atezolizumab, administered intravenously as a bolus, 24 hour before [^18F]DK222 injection (FIG. 5B, FIG. 5C and FIG. 5D). […] Importantly, there was a modest reduction in signal intensity when a low 0.3 mg/kg dose of Atezolizumab was used.
The aim of this experiment was to evaluate the potential of [^18F]DK222 to detect the heterogeneity in binding of different mAbs, thus proving in principle that it can be used to guide the choice between the multiple mAbs available for treatment. […] Separate groups of animals were injected with a single 1 mg/kg dose of (only) one of these mAbs, and after either 24 or 96 hours, each group was injected with [^18F]DK222, imaged, or sacrificed and the [^18F]DK222 signal was quantified (FIG. 6A). The difference in lower [^18F]DK222 signal, at 24 hours between any PD-L1 mAb vs Nivolumab constitutes the saturation binding of the PD-L1 mAb. On the other hand, the higher [^18F]DK222 signal at 96 hours versus that at 24 hours represents loss of the mAb from its binding site, making more PD-L1 accessible to [^18F]DK222. The experiment was repeated in two different tumor models: LOXIMVI and MDAMB231.
1.3.17 aPD-L1 mAb dosing studies. To determine the effect of antibody dose on accessible PD-L1 levels in the tumor, LOX-IMVI tumor-bearing mice were treated with a single intravenous bolus dose of Atezolizumab (0.3 or 20 mg/Kg) and 24 hours later mice were used for imaging (n=3-4) and biodistribution (n=6-8) studies.
Anti PD-1 antibody Nivolumab (1 mg/kg) and saline were used as controls. Mice treated for 24 h with therapeutic mAbs, or saline as a control, were injected with 200 μCi of [^18F]DK222 in 200 μL of saline intravenously, and PET images were acquired 1 hour after the injection of the radiotracer. Due to the many number of groups and mice involved, saline and Nivolumab-treated controls were included in every experiment, and data from multiple experiments were pooled. Study was repeated in MDAMB231 tumor-bearing mice with only biodistribution measurements.

[5] = molecular target: PD-L1 binding to PD-1 (Homo sapiens, UniProt Q9NZQ7); assay: competitive PD-1:PD-L1 inhibition assay (HTRF PD1/PD-L1 binding assay)
Protocol: To modify DK221 for radiolabeling, a bifunctional chelator, e.g., NCS-MP-NODA, was conjugated to the free lysine amine to generate DK222. The NODA chelator was used for radiofluorination to produce [^18F]DK222, as well as a non-radioactive analog [^19F]DK222. (FIG. 1A, FIG. 10 and FIG. 11). A competitive PD-1:PD-L1 inhibition assay was performed to characterize binding affinity of the peptide analogs to PD-L1. […] [^18F]Fluoride-radiolabeling of peptides and small molecules by aluminum fluoride (AlF) method is gaining attention due to the ease of synthesis and the potential to retain the hydrophilicity of the binding moiety. McBride et al., 2010; Kumar et al., 2018. The radiolabeled analog, [^18F]DK222 was synthesized by AlF method in good radiochemical yields (34.85±1.7%, n=62), in vitro stability, and moderate specific activity of 284±56 mCi/μmol (10.51±2.07 GBq/μmol, n=25). […] (FIG. 12, FIG. 13 and FIG. 14).

[6] = molecular target: PD-L1 (Homo sapiens, UniProt Q9NZQ7); conditions: cited from earlier work
[7] = test system: PD-L1 levels in melanoma cells; assay: effect of IFNγ treatment on PD-L1 levels by flow cytometry; assay type: cell-based, human
Protocol: First, the effect of adaptive immune response on the PD-L1 expression in melanoma cells was investigated by assessing changes in PD-L1 levels induced by IFNγ treatment. LOX-IMVI, A375, and MeWO melanoma cells treated with IFNγ were analyzed for changes in PD-L1 levels.
1.3.8 Detection of PD-L1 expression by flow cytometry. Cells were evaluated for PD-L1 surface expression by direct staining of 2×10^5 cells in 100 μL PBS with Cy5-Atezolizumab, for 30 min at 4° C. Cy5-Atezolizumab was prepared as described previously. Kumar et al., 2019. Cells were then washed and analyzed for mean fluorescence intensity (MFI) by flow cytometry. Adherent cells were detached using enzyme-free cell dissociation buffer (Thermo Fisher Scientific, Waltham, Mass.). 1.3.9 In vitro binding assays with [^18F]DK222. In vitro binding of [^18F]DK222 to hPD-L1 MDAMB231, MeWo, A375, Sum149, and CHO cells was determined by incubating 1×10^6 cells with approximately […] of [^18F]DK222 in the presence, or absence, of 1 μM of DK222 or 60 nM mAbs for 30 min at 4° C. After incubation, cells were washed three times with ice cold PBS containing 0.1% Tween20 and counted on an automated gamma counter (1282 Compugamma CS, Pharmacia/LKBNuclear, Inc., Gaithersburg, Md.). […] All cell radioactivity uptake studies were performed in quadruplicate for each cell line and repeated three times.

PD-L1, sequence (Q9NZQ7 19-290): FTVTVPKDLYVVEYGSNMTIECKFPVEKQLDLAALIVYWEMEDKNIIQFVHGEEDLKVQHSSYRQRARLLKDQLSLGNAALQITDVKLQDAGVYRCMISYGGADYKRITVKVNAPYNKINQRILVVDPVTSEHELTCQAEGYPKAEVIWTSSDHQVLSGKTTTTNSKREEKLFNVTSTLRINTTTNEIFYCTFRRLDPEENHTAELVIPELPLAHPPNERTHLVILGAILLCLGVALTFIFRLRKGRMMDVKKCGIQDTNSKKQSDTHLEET
PD-L1 binding to PD-1, sequence (Q9NZQ7 19-238 limits assumed): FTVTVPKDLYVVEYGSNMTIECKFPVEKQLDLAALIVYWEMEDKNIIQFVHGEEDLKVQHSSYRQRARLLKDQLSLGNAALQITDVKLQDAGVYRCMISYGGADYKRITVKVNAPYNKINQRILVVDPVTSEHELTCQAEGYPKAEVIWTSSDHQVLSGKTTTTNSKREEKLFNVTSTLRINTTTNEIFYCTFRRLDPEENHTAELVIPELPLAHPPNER

Avelumab: aPD-L1 mAb, IgG1λ
t1/2 [1]: 6.1 days

CCCC[C@H]1C(=O)N(C)[C@@H](CCCC)C(=O)N[C@@H](CCCCNC(=O)c2ccc([18F])nc2)C(=O)N[C@H](C(=O)NCC(N)=O)CSCC(=O)N[C@@H](Cc2ccc(O)cc2)C(=O)N(C)[C@@H](C)C(=O)N[C@@H](CC(N)=O)C(=O)N2CCC[C@H]2C(=O)N[C@@H](Cc2cnc[nH]2)C(=O)N[C@@H](CCC(=O)O)C(=O)N2C[C@H](O)C[C@H]2C(=O)N[C@@H](Cc2c[nH]c3ccccc23)C(=O)N[C@@H](CO)C(=O)N[C@@H](Cc2cn(CC(=O)O)c3ccccc23)C(=O)N1C [[^18F]DK221-Py]
PET image contrast [2]: poor image contrast

Nivolumab: aPD-1 mAb [reference compound]
increase in median [^18F]DK222 uptake compared to NSG mice [3]: 148%
mean LOX-IMVI tumor [^18F]DK222 uptake ([4]; 1 mg/kg mAb, 24 hours): approximately 20 % ID/g

CCCC[C@H]1C(=O)N(C)[C@@H](CCCC)C(=O)N[C@@H](CCCCNC(=S)Nc2ccc(CN3CCN(CC(=O)O)CCN(CC(=O)O)CC3)cc2)C(=O)N[C@H](C(=O)NCC(N)=O)CSCC(=O)N[C@@H](Cc2ccc(O)cc2)C(=O)N(C)[C@@H](C)C(=O)N[C@@H](CC(N)=O)C(=O)N2CCC[C@H]2C(=O)N[C@@H](Cc2cnc[nH]2)C(=O)N[C@@H](CCC(=O)O)C(=O)N2C[C@H](O)C[C@H]2C(=O)N[C@@H](Cc2c[nH]c3ccccc23)C(=O)N[C@@H](CO)C(=O)N[C@@H](Cc2cn(CC(=O)O)c3ccccc23)C(=O)N1C [DK222] ({CH2CO}-Y[NMeA]NPHE[Hyp]WS[Trp(1-CH2COOH)][NMeNle][NMeNle]K(X1)CG-NH2; thioether N-14)
IC50 [5]: 28 nM
inhibit PD1:PD-L1 interaction ([5]; protein-based assay): at nanomolar concentrations

Durvalumab: aPD-L1 mAb
accessible PD-L1 levels reduced ([4]; 1 mg/kg mAb, LOX-IMVI tumors, 24 h and 96 h): ≥ 70%
Kd [6]: 0.022 nM
t1/2 [1]: 18 days

IFNγ: cytokine used to treat melanoma cells to induce PD-L1
increase in PD-L1 levels ([7]; A375 cells): four-fold
increase in PD-L1 levels ([7]; LOX-IMVI cells): two
change in PD-L1 levels ([7]; MeWo cells): No differences

Pembrolizumab: aPD-1 mAb [reference compound]
increase in median [^18F]DK222 uptake compared to NSG mice [3]: 85%

Atezolizumab: aPD-L1 mAb, isotype IgG1κ
reduction in [^18F]DK222 uptake in tumors vs vehicle ([4]; 0.3 mg/kg single i.v. dose): 32%
reduction in [^18F]DK222 uptake in tumors vs vehicle ([4]; 20 mg/kg single i.v. dose): 89%
Kd [6]: 0.4 nM
t1/2 [1]: 27 days
